Results as given in the NIST ThermoML archive (doi:10.1016/j.jct.2016.02.017).

Experiment: Boiling temperature at pressure P
Details: Liquid, Ebulliometric method (Recirculating still)

O [water]
Details	Boiling temperature at pressure P [°C]
12.1 kPa	50.7
25.8 kPa	67.2
41.8 kPa	78.7
59.7 kPa	85.5
74.1 kPa	91.2
91.8 kPa	97.7
